Source: US8686184B2, “Neprilysin inhibitors” (Theravance, Inc., priority 2011, dated 2014)

Biological target: T1, human neprilysin (EC 3.4.24.11; NEP) (Homo sapiens, UniProt P08473)
T1 construct: purchased R&D Systems, Minneapolis, Minn; 1182-ZN
Assay: In vitro enzyme inhibition assay at human NEP (fluorogenic peptide substrate)
Assay type: biochemical
Conditions: recombinant human NEP; 37° C.; substrate Mca-D-Arg-Arg-Leu-Dap-(Dnp)-OH 10 μM; values given as ranges; read-out: pKi values at human NEP (converted)
Method: In vitro Assays for the Quantitation of Inhibitor Potencies at Human and Rat NEP, and Human ACE
The inhibitory activities of compounds at human and rat neprilysin (EC 3.4.24.11; NEP) and human angiotensin converting enzyme (ACE) were determined using in vitro assays as described below.
Recombinant human NEP and recombinant human ACE were obtained commercially (R&D Systems, Minneapolis, Minn., catalog numbers 1182-ZN and 929-ZN, respectively). The fluorogenic peptide substrate Mca-D-Arg-Arg-Leu-Dap-(Dnp)-OH (Medeiros et al. (1997) Braz. J. Med. Biol. Res. 30:1157-62; Anaspec, San Jose, Calif.) and Abz-Phe-Arg-Lys(Dnp)-Pro-OH (Araujo et al. (2000) Biochemistry 39:8519-8525; Bachem, Torrance, Calif.) were used in the NEP and ACE assays respectively.
The assays were performed in 384-well white opaque plates at 37° C. using the fluorogenic peptide substrates at a concentration of 10 μM in Assay Buffer (NEP: 50 mM HEPES, pH 7.5, 100 mM NaCl, 0.01% polyethylene glycol sorbitan monolaurate (Tween-20), 10 μM ZnSO4; ACE: 50 mM HEPES, pH 7.5, 100 mM NaCl, 0.01% Tween-20, 1 μM ZnSO4).
Test compounds were assayed over the range of concentrations from 10 μM to 20 pM. Test compounds were added to the enzymes and incubated for 30 minute at 37° C. prior to initiating the reaction by the addition of substrate. Reactions were terminated after 20 minutes of incubation at 37° C. by the addition of glacial acetic acid to a final concentration of 3.6% (v/v).
Plates were read on a fluorometer with excitation and emission wavelengths set to 320 nm and 405 nm, respectively Inhibition constants were obtained by nonlinear regression of the data using the equation (GraphPad Software, Inc., San Diego, Calif.): v=v0/[1+(I/K′)] where v is the reaction rate, v0 is the uninhibited reaction rate, I is the inhibitor concentration and K′ is the apparent inhibition constant.
Compounds of the invention were tested in this assay and found to have pKi values at human NEP as follows.

T1 sequence (P08473 52-750 limits assumed): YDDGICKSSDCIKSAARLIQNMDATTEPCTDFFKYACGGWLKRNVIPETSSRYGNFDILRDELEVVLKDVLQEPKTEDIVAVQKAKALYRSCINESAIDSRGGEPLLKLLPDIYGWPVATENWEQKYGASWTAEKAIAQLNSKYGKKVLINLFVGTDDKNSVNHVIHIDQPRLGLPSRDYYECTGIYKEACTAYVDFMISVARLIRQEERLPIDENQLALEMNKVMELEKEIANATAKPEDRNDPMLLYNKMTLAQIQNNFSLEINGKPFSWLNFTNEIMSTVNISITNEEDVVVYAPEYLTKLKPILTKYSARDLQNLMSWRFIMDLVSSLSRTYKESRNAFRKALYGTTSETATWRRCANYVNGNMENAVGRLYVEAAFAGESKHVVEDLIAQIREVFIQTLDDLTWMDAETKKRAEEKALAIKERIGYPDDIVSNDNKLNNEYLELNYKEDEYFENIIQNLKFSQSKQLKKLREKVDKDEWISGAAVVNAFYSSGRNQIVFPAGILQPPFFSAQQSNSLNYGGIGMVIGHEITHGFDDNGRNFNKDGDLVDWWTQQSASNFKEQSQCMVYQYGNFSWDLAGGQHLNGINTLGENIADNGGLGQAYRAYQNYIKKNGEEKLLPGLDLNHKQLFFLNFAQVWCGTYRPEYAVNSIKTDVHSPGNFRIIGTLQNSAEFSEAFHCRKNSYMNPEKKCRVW

| SMILES | Ki |
| --- | --- |
| O=C(O)c1cccc(-c2ccc(C(=O)N[C@H](Cc3ccccc3)[C@@H](O)C(=O)O)cc2)c1 [Example 10-51, 4′-((1R,2R)-1-Benzyl-2-carboxy-2-hydroxy-ethylcarbamoyl)-biphenyl-3-carboxylic acid] | 12.6 to 100 nM |
| O=C(Nc1ccc(C(=O)N[C@H](Cc2ccccc2)[C@@H](O)C(=O)O)cc1)Nc1sccc1C(=O)O [Example 10-52] | 12.6 to 100 nM |
| Cc1cc(C(=O)O)c(NC(=O)Nc2ccc(C(=O)N[C@H](Cc3ccccc3)[C@@H](O)C(=O)O)cc2)s1 [Example 10-53] | 12.6 to 100 nM |
| Cc1ccc(C(=O)N[C@H](Cc2ccccc2)[C@@H](O)C(=O)O)cc1Br [Example 10-54, (2R,3R)-3-(3-Bromo-4-methyl-benzoylamino)-2-hydroxy-4-phenyl-butyric acid] | 12.6 to 100 nM |
| CC(C)c1ccc(C(=O)N[C@H](Cc2ccccc2)[C@@H](O)C(=O)O)cc1Br [Example 10-55, (2R,3R)-3-(3-Bromo-4-isopropyl-benzoylamino)-2-hydroxy-4-phenyl-butyric acid] | 12.6 to 100 nM |
| CCCNc1ccc(C(=O)N[C@H](Cc2ccccc2)[C@@H](O)C(=O)O)cc1Cl [Example 10-56, (2R,3R)-3-(3-Chloro-4-propylamino-benzoylamino)-2-hydroxy-4-phenyl-butyric acid] | 12.6 to 100 nM |
| Cc1cc(C(=O)N[C@H](Cc2ccccc2)[C@@H](O)C(=O)O)ccc1-n1c(C)cc(C=O)c1C [Example 10-57, (2R,3R)-3-[4-(3-Formyl-2,5-dimethyl-pyrrol-1-yl)-3-methyl-benzoylamino]-2-hydroxy-4-phenyl-butyric acid] | 12.6 to 100 nM |
| Cc1cc(C(=O)N[C@H](Cc2ccccc2)[C@@H](O)C(=O)O)ccc1-n1cccc1 [Example 10-58, (2R,3R)-2-Hydroxy-3-(3-methyl-4-pyrrol-1-yl-benzoylamino)-4-phenyl-butyric acid] | 12.6 to 100 nM |
| O=C(O)CCc1cccc(C(=O)N[C@H](Cc2ccccc2)[C@@H](O)C(=O)O)c1 [Example 10-59, (2R,3R)-3-[3-(2-Carboxy-ethyl)-benzoylamino]-2-hydroxy-4-phenyl-butyric acid] | 12.6 to 100 nM |
| CCCC1=NN(c2cccc(C(=O)N[C@H](Cc3ccccc3)[C@@H](O)C(=O)O)c2)C(=O)C1 [Example 10-60, (2R,3R)-2-Hydroxy-3-[3-(5-oxo-3-propyl-4,5-dihydro-pyrazol-1-yl)-benzoylamino]-4-phenyl-butyric acid] | 12.6 to 100 nM |
| Cc1ccc(C(=O)N[C@H](Cc2ccccc2)[C@@H](O)C(=O)O)cc1-c1ccc(C(=O)O)cc1 [Example 10-61, 5′-((1R,2R)-1-Benzyl-2-carboxy-2-hydroxy-ethylcarbamoyl)-2′-methyl-biphenyl-4-carboxylic acid] | 12.6 to 100 nM |
| Cc1ccc(C(=O)N[C@H](Cc2ccccc2)[C@@H](O)C(=O)O)cc1-c1cccc(C(=O)O)c1 [Example 10-62, 5′-((1R,2R)-1-Benzyl-2-carboxy-2-hydroxy-ethylcarbamoyl)-2′-methyl-biphenyl-3-carboxylic acid] | 12.6 to 100 nM |
| O=C(N[C@H](Cc1ccccc1)[C@@H](O)C(=O)O)c1cccc(-c2ncccc2C(=O)O)c1 [Example 10-63, 2-[3-((1R,2R)-1-Benzyl-2-carboxy-2-hydroxy-ethylcarbamoyl)-phenyl]-nicotinic acid] | 1.26 to 10 nM |
| O=C(N[C@H](Cc1ccccc1)[C@@H](O)C(=O)O)c1cccc(-c2cccnc2C(=O)O)c1 [Example 10-64, 3-[3-((1R,2R)-1-Benzyl-2-carboxy-2-hydroxy-ethylcarbamoyl)-phenyl]-pyridine-2-carboxylic acid] | 12.6 to 100 nM |
| CCc1ccc(C(=O)N[C@H](Cc2ccccc2)[C@@H](O)C(=O)O)cc1-n1c(=O)[nH]c2sc(C)cc2c1=O [Example 10-65, (2R,3R)-3-[4-Ethyl-3-(6-methyl-2,4-dioxo-1,4-dihydro-2H-thieno[2,3-d]pyrimidin-3-yl)-benzoylamino]-2-hydroxy-4-phenyl-butyric acid] | ≤ 1 nM |
| CCCCOC(=O)Nc1cc(C(=O)N[C@H](Cc2ccccc2)[C@@H](O)C(=O)O)ccc1CC [Example 10-79, (2R,3R)-3-(3-Butoxycarbonylamino-4-ethyl-benzoylamino)-2-hydroxy-4-phenyl-butyric acid] | 12.6 to 100 nM |
| CC(C)c1ccc(C(=O)N[C@H](Cc2ccccc2)[C@@H](O)C(=O)O)cc1-c1ccncc1 [Example 10-80, (2R,3R)-2-Hydroxy-3-(4-isopropyl-3-pyridin-4-yl-benzoylamino)-4-phenyl-butyric acid] | 12.6 to 100 nM |
| CC(C)c1ccc(C(=O)N[C@H](Cc2ccccc2)[C@@H](O)C(=O)O)cc1-c1cccc(C(=O)N(C)C)c1 [Example 10-81, (2R,3R)-3-[(3′-Dimethylcarbamoyl-6-isopropyl-biphenyl-3-carbonyl)-amino]-2-hydroxy-4-phenyl-butyric acid] | 12.6 to 100 nM |

Second part, the compound after the results:

| Ki | SMILES |
| --- | --- |
| 12.6 to 100 nM | CCCCC(=O)Nc1cc(C(=O)N[C@H](Cc2ccccc2)[C@@H](O)C(=O)O)ccc1CC [Example 10-66, (2R,3R)-3-(4-Ethyl-3-pentanoylamino-benzoylamino)-2-hydroxy-4-phenyl-butyric acid] |
| 12.6 to 100 nM | CCc1ccc(C(=O)N[C@H](Cc2ccccc2)[C@@H](O)C(=O)O)cc1NC(=O)CC(=O)O [Example 10-67, (2R,3R)-3-[3-(2-Carboxy-acetylamino)-4-ethyl-benzoylamino]-2-hydroxy-4-phenyl-butyric acid] |
| 12.6 to 100 nM | CCc1ccc(C(=O)N[C@H](Cc2ccccc2)[C@@H](O)C(=O)O)cc1NC(=O)c1ccccc1 [Example 10-68, (2R,3R)-3-(3-Benzoylamino-4-ethyl-benzoylamino)-2-hydroxy-4-phenyl-butyric acid] |
| 12.6 to 100 nM | CCc1ccc(C(=O)N[C@H](Cc2ccccc2)[C@@H](O)C(=O)O)cc1NC(=O)c1cccnc1 [Example 10-69, (2R,3R)-3-{4-Ethyl-3-[(pyridine-3-carbonyl)-amino]-benzoylamino}-2-hydroxy-4-phenyl-butyric acid] |
| 12.6 to 100 nM | CCc1ccc(C(=O)N[C@H](Cc2ccccc2)[C@@H](O)C(=O)O)cc1NC(=O)c1ccccn1 [Example 10-70, (2R,3R)-3-{4-Ethyl-3-[(pyridine-2-carbonyl)-amino]-benzoylamino}-2-hydroxy-4-phenyl-butyric acid] |
| 12.6 to 100 nM | CCc1ccc(C(=O)N[C@H](Cc2ccccc2)[C@@H](O)C(=O)O)cc1NC(=O)c1ccncc1 [Example 10-71, (2R,3R)-3-{4-Ethyl-3-[(pyridine-4-carbonyl)-amino]-benzoylamino}-2-hydroxy-4-phenyl-butyric acid] |
| 12.6 to 100 nM | CCNC(=O)Nc1cc(C(=O)N[C@H](Cc2ccccc2)[C@@H](O)C(=O)O)ccc1CC [Example 10-72, (2R,3R)-3-[4-Ethyl-3-(3-ethyl-ureido)-benzoylamino]-2-hydroxy-4-phenyl-butyric acid] |
| 12.6 to 100 nM | CCCCNC(=O)Nc1cc(C(=O)N[C@H](Cc2ccccc2)[C@@H](O)C(=O)O)ccc1CC [Example 10-73, (2R,3R)-3-[3-(3-Butyl-ureido)-4-ethyl-benzoylamino]-2-hydroxy-4-phenyl-butyric acid] |
| 12.6 to 100 nM | CCc1ccc(C(=O)N[C@H](Cc2ccccc2)[C@@H](O)C(=O)O)cc1NC(=O)NC(CC(C)C)C(=O)O (stereo partly drawn) [Example 10-74, 2-{3-[5-((1R,2R)-1-Benzyl-2-carboxy-2-hydroxy-ethylcarbamoyl)-2-ethyl-phenyl]-ureido}-4-methyl-pentanoic acid] |
| 12.6 to 100 nM | CCc1ccc(C(=O)N[C@H](Cc2ccccc2)[C@@H](O)C(=O)O)cc1NC(=O)Nc1ccccc1 [Example 10-75, (2R,3R)-3-[4-Ethyl-3-(3-phenyl-ureido)-benzoylamino]-2-hydroxy-4-phenyl-butyric acid] |
| 12.6 to 100 nM | CCc1ccc(C(=O)N[C@H](Cc2ccccc2)[C@@H](O)C(=O)O)cc1NC(=O)Nc1sccc1C(=O)O [Example 10-76, 2-{3-[5-((1R,2R)-1-Benzyl-2-carboxy-2-hydroxy-ethylcarbamoyl)-2-ethyl-phenyl]-ureido}-thiophene-3-carb oxylic acid] |
| ≤ 1 nM | CCc1ccc(C(=O)N[C@H](Cc2ccccc2)[C@@H](O)C(=O)O)cc1NC(=O)Nc1sc(C)cc1C(=O)O [Example 10-77, 2-{3-[5-((1R,2R)-1-Benzyl-2-carboxy-2-hydroxy-ethylcarbamoyl)-2-ethyl-phenyl]-ureido}-5-methyl-thiophene-3-carboxylic acid] |
| 12.6 to 100 nM | CCc1ccc(C(=O)N[C@H](Cc2ccccc2)[C@@H](O)C(=O)O)cc1NC(=O)Nc1ccsc1C(=O)O [Example 10-78, 3-{3-[5-((1R,2R)-1-Benzyl-2-carboxy-2-hydroxy-ethylcarbamoyl)-2-ethyl-phenyl]-ureido}-thiophene-2-carboxylic acid] |
